Measured values from patent US20230212159A1, “Process for the Production of Ferroportin Inhibitors” (Vifor (International) AG, priority 2020, published 2023).
Where two headings read alike, the source gives them in different places.

Molecular target: T1, ferroportin (Fpn) (Mus musculus, UniProt Q9JHI9)
T1 construct: endogenous in cells; host or cells: J774 mouse macrophage cell line
T1 sequence (Q9JHI9 1-570): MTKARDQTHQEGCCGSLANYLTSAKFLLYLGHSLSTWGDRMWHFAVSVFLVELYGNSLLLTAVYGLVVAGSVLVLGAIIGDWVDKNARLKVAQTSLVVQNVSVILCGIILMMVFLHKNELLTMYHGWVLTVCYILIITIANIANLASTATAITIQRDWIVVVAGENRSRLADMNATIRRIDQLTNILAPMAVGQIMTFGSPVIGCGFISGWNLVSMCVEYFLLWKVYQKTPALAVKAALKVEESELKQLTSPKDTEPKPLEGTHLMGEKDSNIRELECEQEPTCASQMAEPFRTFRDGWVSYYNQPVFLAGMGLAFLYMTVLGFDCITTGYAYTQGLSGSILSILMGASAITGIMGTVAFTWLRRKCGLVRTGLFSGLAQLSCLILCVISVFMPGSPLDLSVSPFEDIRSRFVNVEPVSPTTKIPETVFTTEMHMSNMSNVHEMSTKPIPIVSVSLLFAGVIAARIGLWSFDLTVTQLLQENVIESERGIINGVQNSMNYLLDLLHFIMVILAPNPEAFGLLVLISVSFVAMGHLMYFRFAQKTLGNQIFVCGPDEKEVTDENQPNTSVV
Assay: Hepcidin internalization assay (J774)
Type: cell-based
Description: This cellular assay allows quantification of the binding of hepcidin to ferroportin (Fpn) through microscopic detection of internalization of a fluorescently labeled hepcidin into J774 cells. […] Binding of hepcidin to Fpn triggers internalization and degradation of both hepcidin and Fpn. However, the TMR (6-carboxytetramethylrhodamine) fluorophore attached to hepcidin remains associated with the cell after degradation of the hepcidin peptide backbone. Therefore, microscopic detection of cell-associated TMR fluorescence is a measure of hepcidin binding to Fpn and internalization of hepcidin and Fpn. If TMR-hepcidin is prevented from binding to Fpn, cellular TMR fluorescence remains low (Dürrenberger et al, 2013). The effect of small molecular weight Fpn inhibitor compounds in this assay was evaluated in vitro as described below.
J774 cells, harvested from ca. 80% confluent cultures, were plated at 8x10^5 cells/ml in complete medium (DMEM, 10% FBS, 1% Penicillin-Streptomycin) containing 200 µM Fe(III)NTA (nitrilotriacetic acid), 100 µl per well of 96 well MicroClear plates (Greiner; Cat. 655090) and grown at 37° C. with 5% CO2. After overnight incubation, cells were washed 3 times with prewarmed DMEM w/o phenol red, 30 µl/well of DMEM w/o phenol red was added after the final wash and 10 µl/well of dilution series of test compounds were added in triplicates. J774 cells were pre-incubated with test compounds at 37° C. with 5% CO2 for 15 min. before TMR-hepcidin was added at 25 nM final concentration. Cells were incubated in a total volume of 50 µl at 37° C. with 5% CO2 for 2 hours, then Hoechst 33342 dye was added to a final concentration of 0.5 µg/ml to stain nuclei and further incubated for 10 min. at 37° C. with 5% CO2. Cells were washed 3 times with PBS and fixed in 100 µl of 4% paraformaldehyde in PBS for 15 min. at room temperature. After removal of the paraformaldehyde solution, cells were washed 3 times with PBS leaving 100 µl per well and the plates were sealed with foil plate seal. TMR (530-550 nm excitation / 575-625 nm emission / 400 ms exposure time) and Hoechst 33342 (360-370 nm excitation / 420-460 nm emission / 10 ms exposure time) fluorescence images were acquired using a ScanR plate imager (Olympus) with a 20x high NA objective. Four pictures were acquired per well and fluorescence channel covering ca. 1500 cells per well. The acquired image data was analysed with the ScanR image analysis software. Image analysis included detection of nuclei (Hoechst 33342 fluorescence), identification of cell-associated regions, application of a virtual channel and thresholding for rolling-ball-type background reduction, followed by application of the Sum(Mean) algorithm to measure the TMR fluorescence associated with cells as a quantitative measure for internalized TMR- hepcidin. IC50 values were calculated with the Sum(Mean) raw data using “log(inhibitor) vs. response” curve fitting of Prism 5 software (GraphPad Software Inc., version 5.02). For each data set the fit of the “log(inhibitor) vs. response (three parameters)″ model was compared to the fit of the “log(inhibitor) vs. response - Variable slope (four parameters)″ model and the IC50 data of the preferred model was used. IC50 data of the Compounds according to formula (II) and (II′), that were tested in the hepcidin internalization assay are shown in Table 1.

[1] = J774 cells, (II) and (II′) tested as 3HCl-salts, n=2, read-out: Hepcidin internalization (J774) IC50
[2] = average of multiple measurements, hepcidin internalization assay, 3HCl-salts, read-out: J774 IC50

Compound	IC50 [1] [nM]	IC50 [2] [nM]
O=C(NCc1ncccc1F)c1coc(CCNCCc2nc3ccccc3[nH]2)n1 [Compound (II)]	7.3	7
O=C(NCc1ncccc1Br)c1coc(CCNCCc2nc3ccccc3[nH]2)n1 [Compound (II′)]	5.9	6
CC[C@H](C)[C@@H]1NC(=O)[C@@H](NC(=O)[C@@H](NC(=O)[C@@H]2CCCN2C(=O)[C@H](Cc2ccccc2)NC(=O)[C@H](Cc2c[nH]cn2)NC(=O)[C@@H](NC(=O)[C@@H](N)CC(=O)O)[C@@H](C)O)[C@@H](C)CC)CSSC[C@@H](C(=O)N[C@@H](CCCCN)C(=O)N[C@H](C(=O)O)[C@@H](C)O)NC(=O)[C@@H]2CSSC[C@@H]3NC(=O)[C@@H]4CSSC[C@H](NC(=O)[C@H](Cc5ccccc5)NC1=O)C(=O)N[C@@H](CSSC[C@H](NC(=O)[C@H](CCCCN)NC(=O)[C@H](CO)NC(=O)[C@H](CCCNC(=N)N)NC(=O)[C@H](Cc1c[nH]cn1)NC3=O)C(=O)NCC(=O)N[C@@H](CCSC)C(=O)N2)C(=O)NCC(=O)N4 [hepcidin, reference compound]	10.7	
